Experimental data from patent US20200270225A1, “Chiral Diacylhydrazine Ligands for Modulating the Expression of Exogenous Genes via an Ecdysone Receptor Complex” (Intrexon Corporation, priority 2007, published 2020).
pEC50: −log10 of the molar value. Where two headings read alike, the source gives them in different places.

Legend:
[1] = biological target: wild-type Choristoneura fumiferana EcR (D, E and F domains) (Choristoneura fumiferana, UniProt O77240); format: cell-based; settings: WT-CtEcR, 3T3 Cells; for RMFI (relative maximum fold induction): relative to GS-E ligand
Procedure, shortened: (§1)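 NIH3T3 cells were transiently co-transfected with GAL4-DBD fused to CfEcR DEF domains (wild-type or V390I/Y410E/E274V), VP16-AD fused to chimeric human/Locusta RXR, and a GAL4-response luciferase reporter. Ligand was given at 8 doses, 0.01–33 µM, 0.33% DMSO, luciferase read at 48 h. EC50 came from fold induction over DMSO via three-parameter logistic fit; Relative Max FI was taken versus GS™-E ligand.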

[2] = biological target: T1, [V390I/Y410E/E274V]-CfEcR (Choristoneura fumiferana, UniProt O77240); format: cell-based; settings: 3T3 Cells; for RMFI (relative maximum fold induction): relative to GS-E ligand
T1 construct: assay construct b835
Procedure, shortened: as §1

[3] = Solubility in pharmaceutical excipients, Assay 2 (heating, cooling, seeding); format: physicochemical; settings: supersaturated solutions seeded with crystalline substance, room temperature
Method: For each excipient, the lowest concentration at which R enantiomer or racemate of 2-Ethyl-3-methoxy-benzoic acid N′-(1-tert-butyl-butyl)-N′-(3,5-dimethyl-benzoyl)-hydrazide is insoluble in the FIG. 9 assay was identified. Suspensions of both materials at this same concentration were prepared in vials. Each sample was stirred at room temperature for ≤2.5 hr (treatment 1). As a separate experiment, test article/excipient combinations were heated in an aluminum block at 90° C. for 5 minutes, or longer as needed; indicated in FIG. 10, and allow to cool to room temperature, and seeded with a tiny amount of the same micronized substance. (treatment 2). The physical appearance was recorded at 72 hr or the indicated time (FIG. 10). In all cases, no change in color was observed. This solubility assay operates from a fully dissolved condition in which initial particle size and morphic form are irrelevant. […] Photos were taken of preparations in clear glass vials (R enantiomer under the conditions of assay 1 without heating to 90° C., and racemate after 90° C. treatment, cooling and seeding, not shown).

[4] = Intrinsic dissolution of compressed pellets in 1% Polysorbate 80; format: physicochemical; settings: 1% Polysorbate 80 in di-water, 37° C., up to 120 minutes
Method: Next, the intrinsic dissolution profiles of R enantiomer and racemate of 2-ethyl-3-methoxy-benzoic acid N′-(1-tert-butyl-butyl)-N′-(3,5-dimethyl-benzoyl)-hydrazide were determined using compressed pellets (7 mm diameter, 100 mg) in 1% Polysorbate 80 in Di-water at 37° C., according to the following test conditions:
Medium: 1% Polysorbate 80 in di-water (vacuum filtered thru a 0.8 μM filter)
Sampling volume: 1 mL (filtered thru 30 micron)
Analysis: HPLC (prepare standard solutions from each lot)
Sample size: n=2 pellets/test substance
After 120 minutes, it was observed that the pellets for both substances remained intact in the medium.

SMILES | pEC50 ([1]; rac) | RMFI (relative maximum fold induction) ([1]; rac) | pEC50 ([2]; rac) | RMFI (relative maximum fold induction) ([2]; rac) | physical appearance of excipient solutions after seeding [3] | release from compressed pellets (intrinsic dissolution) [4] | pEC50 ([1]; R) | RMFI (relative maximum fold induction) ([1]; R) | pEC50 ([2]; R) | RMFI (relative maximum fold induction) ([2]; R)
CCCC(N(NC(=O)c1cccc(OC)c1CC)C(=O)c1cc(C)cc(C)c1)C(C)(C)C (racemic) [rac-1, rac-2-ethyl-3-methoxy-benzoic acid N′-(1-tert-butyl-butyl)-N′-(3,5-dimethyl-benzoyl)-hydrazide] | 8.79 | 1.05 | 9.85 | 1.05 | precipitation/crystallization upon seeding | under the detection limit |  |  |  | 
CCC[C@@H](N(NC(=O)c1cccc(OC)c1CC)C(=O)c1cc(C)cc(C)c1)C(C)(C)C [Example 1, (R)-3,5-Dimethyl-benzoic Acid N-(1-tert-butyl-butyl)-N′-(2-ethyl-3-methoxy-benzoyl)-hydrazide] |  |  |  |  | remains fully dissolved | under the detection limit | 8.65 | 0.97 | 9.89 | 0.82
